Values joined by “and” are separate entries in the source; they are usually repeats but may differ in a detail not shown here. Identical values can stand only once.
Columns and labels:
Settings in all cases: in vivo
[1] = test system: yellow nutsedge; design: species or system Cyperus esculentus
[2] = test system: three grassy weeds (wild oat, watergrass, foxtail); design: species or system Avena fatua, Echinochloa crusgalli, Setaria viridis
[3] = test system: three broadleaf weeds (morning glory, mustard, velvetleaf); design: species or system Ipomoea purpurea, Brassica kaber, Abutilon theophrasti
[4] = test system: yellow nutsedge; design: species or system Cyperus esculentus; remark: listed apart in the source
[5] = test system: three grassy weeds (wild oat, watergrass, foxtail); design: species or system Avena fatua, Echinochloa crusgalli, Setaria viridis; remark: listed apart in the source
[6] = test system: three broadleaf weeds (morning glory, mustard, velvetleaf); design: species or system Ipomoea purpurea, Brassica kaber, Abutilon theophrasti; remark: listed apart in the source

| Structure (SMILES) | % Control, Post-emergence, NS [1] | % Control, Pre-emergence, GR avg. [2] | % Control, Post-emergence, BL avg. [3] | % Control, Pre-emergence, NS [4] | % Control, Post-emergence, GR avg. [5] | % Control, Pre-emergence, BL avg. [6] |
| --- | --- | --- | --- | --- | --- | --- |
| CCCSP(=O)(N(C)c1ccc(F)cc1)N(C)c1ccc(F)cc1 [Compound 45] | 0% and 10% | 0% | 90% and 92% | 0% | 50% and 75% | 0% |
| CCCN(CCC)P(=O)(Sc1ccccc1)N(CCC)CCC [Compound 63] | 0% | 0% | 80% and 91% | 0% | 60% and 43% | 3% |
| CCCSP(=O)(N(CCC)CCC)N(C)c1ccc(Cl)cc1C (stereo not drawn) [Compound 62] | 0% | 0% | 75% and 76% | 0% | 30% and 33% | 0% |
| CCCSP(=O)(N(C)CC)N(CCC)CCC (stereo not drawn) [Compound 2] | 20% and 10% | 33% | 100% | 0% | 80% and 57% | 33% |
| CCCCCSP(=O)(N(CCCC)CCCC)N(CCCC)CCCC [Compound 4] | 0% | 0% | 50% and 45% | 0% | 70% and 77% | 0% |
| CCCSP(=O)(N(CCC)CCC)N(CC)c1ccccc1 (stereo not drawn) [Compound 26] | 0% | 7% | 50% | 0% | 20% and 10% | 33% |
| CCCN(CCC)P(=O)(Sc1ccccc1C)N(CCC)CCC [Compound 5] | 0% | 0% | 40% and 33% | 0% | 40% and 27% | 0% |
| CCCCCN(CCCCC)P(=O)(SCCC)N(C)c1ccccc1C (stereo not drawn) [Compound 15] | 5% and 0% | 0% | 80% and 60% | 0% | 50% and 47% | 0% |
| CCCN(CCC)P(=O)(Sc1ccc(Cl)c(Cl)c1)N(CCC)CCC [Compound 9] | 0% | 0% | 50% and 83% | 0% | 50% and 47% | 0% |
| CCCSP(=O)(N(CCC)CCC)N(C)c1ccc(F)c(F)c1 (stereo not drawn) [Compound 30] | 0% | 0% | 80% and 97% | 0% | 5% and 0% | 0% |
| CCCSP(=O)(N(CCC)CCC)N(C)c1ccc(OC)cc1 (stereo not drawn) [Compound 36] | 0% | 0% | 100% | 0% | 10% | 0% |
| CCCCSP(=O)(N(CCC)CCC)N(CCC)CCC [Compound 1] | 10% and 5% | 2% | 90% and 100% | 0% | 90% and 85% | 50% |
| CCCSP(=O)(N(CCC)CCC)N(C)c1ccc(OC)cc1 (stereo not drawn) [Compound 10] | 10% and 0% | 0% | 80% | 9% | 30% and 23% | 0% |
| CCCCN(CCCC)P(=O)(SCCC)N(CCCC)CCCC [Compound 7, S-n-propyl-tetra(n-butyl) phosphorodiamide] | 10% and 0% | 0% | 90% and 100% | 0% | 90% and 93% | 0% |
| CCCSP(=O)(N(CCC)CCC)N(CCC)c1ccccc1C(C)C (stereo not drawn) [Compound 57] | 0% | 0% | 70% and 60% | 0% | 20% and 16% | 0% |
| CCCSP(=O)(N(CCC)CCC)N(C)c1ccc(OC)c(OC)c1 (stereo not drawn) [Compound 42] | 0% | 0% | 50% and 83% | 0% | 20% and 23% | 0% |
| CCCCN(CC(C)C)P(=O)(SCCC)N(CCCC)CC(C)C [Compound 50] | 0% | 0% | 85% and 70% | 0% | 90% and 77% | 0% |
| CCCSP(=O)(N(CCC)CCC)N(C)c1ccc(Cl)cc1Cl (stereo not drawn) [Compound 22] | 10% and 0% | 0% | 60% | 0% | 50% and 53% | 0% |
| CCCCN(CCCC)P(=O)(SCCC)N(C)c1ccc(OC)cc1 (stereo not drawn) [Compound 11] | 10% and 0% | 0% | 60% and 70% | 9% | 30% and 50% | 0% |
| CCCSP(=O)(N(CCC)CCC)N(C)c1cccc([N+](=O)[O-])c1 (stereo not drawn) [Compound 44] | 0% | 0% | 53% | 0% | 10% | 0% |
| CCCSP(=O)(N(CCC)CCC)N(C)c1cccnc1 (stereo not drawn) [Compound 40] | 0% | 0% | 70% | 0% | 10% | 0% |
| CCCSP(=O)(N(CCC)CCC)N(CCC)c1ccccc1 (stereo not drawn) [Compound 25] | 0% | 0% | 50% and 67% | 0% | 50% and 67% | 33% |
| CCCSP(=O)(N(CCC)CCC)N(CCC)c1ccc(Cl)cc1C (stereo not drawn) [Compound 61] | 0% | 0% | 80% and 76% | 0% | 50% and 38% | 3% |
| CCCSP(=O)(N(CC)CC(C)C)N(CC)CC(C)C [Compound 49] | 0% | 0% | 100% | 0% | 80% and 47% | 0% |
| CCCSP(=O)(N(CCC)CCC)N(C)c1ccc(Cl)cc1 (stereo not drawn) [Compound 16] | 0% | 0% | 43% and 73% | 0% | 33% and 47% | 0% |
| CCCSP(=O)(N(CCC)CCC)N(CCOC)CCOC (stereo not drawn) [Compound 46] | 0% | 0% | 60% and 73% | 0% | 30% and 47% | 0% |
| CCCCN(CCCC)P(=O)(SCCC)N(C)c1ccc(Cl)cc1Cl (stereo not drawn) [Compound 23] | 0% | 0% | 50% and 43% | 0% | 20% and 13% | 0% |
| CCCCN(c1ccccc1)P(=O)(SCCC)N(CCC)CCC (stereo not drawn) [Compound 24] | 10% and 0% | 0% | 80% and 73% | 0% | 30% and 23% | 33% |
| CCCSP(=O)(N(CCC)CCC)N(C)c1cccc(Cl)c1Cl (stereo not drawn) [Compound 35] | 0% | 0% | 20% and 33% | 0% | 20% and 33% | 0% |
| CCCSP(=O)(N(CCC)CCC)N(C)c1ccccc1C (stereo not drawn) [Compound 14] | 5% and 0% | 30% | 60% and 67% | 0% | 60% and 73% | 33% |

From patent publication US5189169A (priority 1991, dated 1993)
